Data reported in patent publication US7816353B2 (Exelixis, Inc., priority 2003, dated 2010).

target: T1, p70S6K (Homo sapiens, UniProt P23443, T412E); test: p70S6 Kinase Assay (Luciferase-Coupled Chemiluminescent Kinase assay, LCCA); type: biochemical; settings: human p70S6 kinase domain residues 1-421, T412E; 5 μM ATP; read-out: p70S6K IC50
T1 construct: human p70S6 kinase domain residues 1-421, containing a T412E mutation; made in house
Summary of the method: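 Luciferase-coupled chemiluminescence measured percent ATP remaining after the 2 h kinase reaction at ambient temperature, with ATP near the kinase's KM. Ten inhibitor concentrations were tested. IC50 was obtained from a Hill-equation fit.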

T1 sequence (P23443 1-421 T412E): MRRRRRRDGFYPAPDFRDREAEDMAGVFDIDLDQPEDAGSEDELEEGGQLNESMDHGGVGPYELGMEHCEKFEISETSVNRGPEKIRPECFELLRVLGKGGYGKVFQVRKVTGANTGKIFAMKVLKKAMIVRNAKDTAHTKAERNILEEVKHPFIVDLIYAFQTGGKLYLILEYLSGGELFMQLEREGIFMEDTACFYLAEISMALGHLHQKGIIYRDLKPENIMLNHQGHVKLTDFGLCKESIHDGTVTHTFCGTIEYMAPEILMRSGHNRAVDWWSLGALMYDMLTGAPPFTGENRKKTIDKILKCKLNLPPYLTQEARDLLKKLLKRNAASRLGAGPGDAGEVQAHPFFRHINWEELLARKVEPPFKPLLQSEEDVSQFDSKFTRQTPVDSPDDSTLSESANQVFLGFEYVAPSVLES

IC50, > 2000 nM:
CCOc1nc(N)nc(N[C@@H](CCCNC(=N)N)C(=O)Nc2cccc(C(F)(F)F)c2)c1C#N [Example 152, N~2~-[2-amino-5-cyano-6-(ethyloxy)pyrimidin-4-yl]-N-[3-(trifluoromethyl)phenyl]-L-argininamide]
CSc1nc(N)nc(N(C)[C@@H](CCCCNC(=O)OCc2ccccc2)C(=O)Nc2cccc(C(F)(F)F)c2)c1C#N [Example 153, N~2~-[2-amino-5-cyano-6-(methylthio)pyrimidin-4-yl]-N~2~-methyl-N~6~-{[(phenylmethyl)oxy]carbonyl}-N-[3-(trifluoromethyl)phenyl]-L-lysinamide]
CCOc1nc(N)nc(N[C@@H](Cc2ccc(O)cc2)C(=O)Nc2cccc(C(F)(F)F)c2)c1C#N [Example 154, Nalpha-[2-amino-5-cyano-6-(ethyloxy)pyrimidin-4-yl]-N-[3-(trifluoromethyl)phenyl]-L-tyrosinamide]
CSc1nc(N)nc(NCCC[C@H](N)C(=O)Nc2cccc(C(F)(F)F)c2)c1C#N [Example 155, N~5~-[2-amino-5-cyano-6-(methylthio)pyrimidin-4-yl]-N-[3-(trifluoromethyl)phenyl]-L-ornithinamide]
CCOc1nc(N)nc(N[C@@H](CCCCN(C)C)C(=O)Nc2cccc(C(F)(F)F)c2)c1C#N [Example 156, N~2~-[2-amino-5-cyano-6-(ethyloxy)pyrimidin-4-yl]-N~6~,N~6~-dimethyl-N-[3-(trifluoromethyl)phenyl]-L-lysinamide]
CCOc1nc(N)nc(N[C@@H](C)C(=O)Nc2cc(C(=O)N3CCN(C)CC3)cc(C(F)(F)F)c2)c1C#N [Example 157, N~2~-[2-amino-5-cyano-6-(ethyloxy)pyrimidin-4-yl]-N-[3-[(4-methylpiperazin-1-yl)carbonyl]-5-(trifluoromethyl)phenyl]-L-alaninamide]
CCOc1nc(N)nc(N[C@@H](C)C(=O)Nc2cc(C(=O)NCCCN3CCCC3)cc(C(F)(F)F)c2)c1C#N [Example 158, 3-({N-[2-amino-5-cyano-6-(ethyloxy)pyrimidin-4-yl]-L-alanyl}amino)-N-(3-pyrrolidin-1-ylpropyl)-5-(trifluoromethyl)benzamide]
CCOc1nc(N)nc(N[C@@H](C)C(=O)Nc2cc(C(=O)NCCN3CCOCC3)cc(C(F)(F)F)c2)c1C#N [Example 159, 3-({N-[2-amino-5-cyano-6-(ethyloxy)pyrimidin-4-yl]-L-alanyl}amino)-N-(2-morpholin-4-ylethyl)-5-(trifluoromethyl)benzamide]
CCOc1nc(N)nc(N[C@@H](C)C(=O)Nc2cc(C(=O)NCCCN3CCN(C)CC3)cc(C(F)(F)F)c2)c1C#N [Example 161]
CCOc1nc(N)nc(N(C)[C@@H](CCCCNC(=O)OCc2ccccc2)C(=O)Nc2cccc(C(F)(F)F)c2)c1C#N [Example 162, N~2~-[2-amino-5-cyano-6-(ethyloxy)pyrimidin-4-yl]-N~2~-methyl-N~6~-{[(phenylmethyl)oxy]carbonyl}-N-[3-(trifluoromethyl)phenyl]-L-lysinamide]
CCOc1nc(N)nc(N[C@@H](COC(C)=O)C(=O)Nc2cccc(C(F)(F)F)c2)c1C#N [Example 164, (2S)-2-{[2-amino-5-cyano-6-(ethyloxy)pyrimidin-4-yl]amino}-3-oxo-3-{[3-(trifluoromethyl)phenyl]amino}propyl acetate]
CCOc1nc(N)nc(N[C@@H](CCC(=O)OCc2ccccc2)C(=O)Nc2cccc(C(F)(F)F)c2)c1C#N [Example 165, phenylmethyl N~2~-[2-amino-5-cyano-6-(ethyloxy)pyrimidin-4-yl]-N-[3-(trifluoromethyl)phenyl]-L-apha-glutaminate]
CSc1nc(NC(C)=O)nc(N(C(C)=O)[C@@H](CCCNC(C)=O)C(=O)Nc2cccc(C(F)(F)F)c2)c1C#N [Example 166, N~2~,N~5~-diacetyl-N~2~-[2-(acetylamino)-5-cyano-6-(methylthio)pyrimidin-4-yl]-N-[3-(trifluoromethyl)phenyl]-L-ornithinamide]
CCOc1nc(N)nc(N[C@@H](CCCN2CCOCC2)C(=O)Nc2cccc(C(F)(F)F)c2)c1C#N [Example 168, N~2~-[2-amino-5-cyano-6-(ethyloxy)pyrimidin-4-yl]-5-morpholin-4-yl-N-[3-(trifluoromethyl)phenyl]-L-norvalinamide]
CCOc1nc(N)nc(N[C@@H](CCC[N+](C)(C)C)C(=O)Nc2cccc(C(F)(F)F)c2)c1C#N [Example 169, N-((4S)-4-{[2-amino-5-cyano-6-(ethyloxy)pyrimidin-4-yl]amino}-5-oxo-5-{[3-(trifluoromethyl)phenyl]amino}pentyl)-N,N-dimethylmethanaminium]
CCOc1nc(N)nc(N[C@@H](CCC(=O)OC)C(=O)Nc2cccc(C(F)(F)F)c2)c1C#N [Example 170, Methyl N~2~-[2-amino-5-cyano-6-(ethyloxy)pyrimidin-4-yl]-N-[3-(trifluoromethyl)phenyl]-L-alpha-glutaminate]
CSc1nc(N)nc(N[C@@H](CCCCN(C)C)C(=O)Nc2cccc(C(F)(F)F)c2)c1C#N [Example 171, N~2~-[2-amino-5-cyano-6-(methylthio)pyrimidin-4-yl]-N~6~,N~6~-dimethyl-N-[3-(trifluoromethyl)phenyl]-L-lysinamide]
CCOc1nc(N)nc(N[C@@H](CCC(=O)O)C(=O)Nc2cccc(C(F)(F)F)c2)c1C#N [Example 173, N~2~-[2-amino-5-cyano-6-(ethyloxy)pyrimidin-4-yl]-N-[3-(trifluoromethyl)phenyl]-L-alpha-glutamine]
CCOc1nc(N)nc(N(C)[C@@H](C)C(=O)Nc2cccc(Br)c2)c1C#N [Example 174, N~2~-[2-amino-5-cyano-6-(ethyloxy)pyrimidin-4-yl]-N-(3-bromophenyl)-N~2~-methyl-L-alaninamide]
CCOc1nc(N)nc(N[C@@H](CCC(N)=O)C(=O)Nc2cccc(C(F)(F)F)c2)c1C#N [Example 175, N~2~-[2-amino-5-cyano-6-(ethyloxy)pyrimidin-4-yl]-N~1~-[3-(trifluoromethyl)phenyl]-L-glutamamide]
CCOc1nc(N)nc(N[C@@H](CN(C)C)C(=O)Nc2cccc(C(F)(F)F)c2)c1C#N [Example 176, N~2~-[2-amino-5-cyano-6-(ethyloxy)pyrimidin-4-yl]-3-(dimethylamino)-N-[3-(trifluoromethyl)phenyl]-L-alaninamide]
CCOc1nc(N)nc(N[C@@H](CCC(=O)NN)C(=O)Nc2cccc(C(F)(F)F)c2)c1C#N [Example 177, ′2-(2-amino-5-cyano-6-ethoxy-pyrimidin-4-ylamino)-4-hydrazinocarbonyl-N-(3-trifluoromethyl-phenyl)-butyramide]
COc1nc(N)nc(N[C@@H](CN(C)C)C(=O)Nc2cccc(C(F)(F)F)c2)c1C#N [Example 178, N~2~-[2-amino-5-cyano-6-(methyloxy)pyrimidin-4-yl]-3-(dimethylamino)-N-[3-(trifluoromethyl)phenyl]-L-alaninamide]
COc1nc(N)nc(N[C@@H](C)C(=O)Nc2cc(OCCN(C)C)cc(C(F)(F)F)c2)c1C#N [Example 179, N~2~-[2-amino-5-cyano-6-(methyloxy)pyrimidin-4-yl]-N-[3-{[2-(dimethylamino)ethyl]oxy}-5-(trifluoromethyl)phenyl]-L-alaninamide]
CCOc1nc(N)nc(N[C@@H](C)C(=O)Nc2cc(OCCN(C)C)cc(C(F)(F)F)c2)c1C#N [Example 180, N~2~-[2-amino-5-cyano-6-(ethyloxy)pyrimidin-4-yl]-N-[3-{[2-(dimethylamino)ethyl]oxy}-5-(trifluoromethyl)phenyl]-L-alaninamide]
COc1nc(N)nc(N(C)[C@@H](C)C(=O)Nc2cccc(Br)c2)c1C#N [Example 181, N~2~-[2-amino-5-cyano-6-(methyloxy)pyrimidin-4-yl]-N-(3-bromophenyl)-N~2~-methyl-L-alaninamide]
CSc1nc(N)nc(N[C@@H](CCC(=O)OCc2ccccc2)C(=O)Nc2cccc(C(F)(F)F)c2)c1C#N [Example 182, phenylmethyl N~2~-[2-amino-5-cyano-6-(methylthio)pyrimidin-4-yl]-N-[3-(trifluoromethyl)phenyl]-L-alpha-glutaminate]
CSc1nc(N)nc(N[C@@H](COCc2ccccc2)C(=O)Nc2cccc(C(F)(F)F)c2)c1C#N [Example 183, N~2~-[2-amino-5-cyano-6-(methylthio)pyrimidin-4-yl]-O-(phenylmethyl)-N-[3-(trifluoromethyl)phenyl]-L-serinamide]
COCCN(CCC[C@H](Nc1nc(N)nc(SC)c1C#N)C(=O)Nc1cccc(C(F)(F)F)c1)CCOC [Example 184, N~2~-[2-amino-5-cyano-6-(methylthio)pyrimidin-4-yl]-N~5~,N~5~-bis[2-(methyloxy)ethyl]-N-[3-(trifluoromethyl)phenyl]-L-ornithinamide]
COc1nc(N)nc(N[C@@H](CCCNC(=O)OC(C)(C)C)C(=O)Nc2cccc(C(F)(F)F)c2)c1C#N [Example 185, 1,1-dimethylethyl ((4S)-4-{[2-amino-5-cyano-6-(methyloxy)pyrimidin-4-yl]amino}-5-oxo-5-{[3-(trifluoromethyl)phenyl]amino}pentyl)carbamate]
CCOc1nc(N)nc(N[C@@H](CCCNC(C)=O)C(=O)Nc2cccc(C(F)(F)F)c2)c1C#N [Example 186, N~5~-acetyl-N~2~-[2-amino-5-cyano-6-(ethyloxy)pyrimidin-4-yl]-N-[3-(trifluoromethyl)phenyl]-L-ornithinamide]
COc1nc(N)nc(N(C)[C@@H](C)C(=O)Nc2cccc(OC(F)(F)F)c2)c1C#N [Example 188, N~2~-[2-amino-5-cyano-6-(methyloxy)pyrimidin-4-yl]-N~2~-methyl-N-{3-[(trifluoromethyl)oxy]phenyl}-L-alaninamide]
